A melting point compilation (Tetko et al.)

Settings: a range is the spread between reports

Row | melting point [°C] | SMILES
1 | 315 to 320 | O=C1OC2(c3ccc(O)cc3Oc3cc(O)ccc32)c2ccccc21
2 | 13.3 to 14 | CCC(c1ccccc1)c1ccccc1
3 | 156 | O=P(c1ccccc1)(c1ccccc1)c1ccccc1
4 | 342 to 347 | O=C(O)c1cccc(C(=O)O)c1
5 | -5 to -4.5 | CNCCO
6 | 207 to 208 | O=C(O)c1ccc(Cl)c(Cl)c1
7 | -188 | CCC
8 | 110 to 111 | Oc1cccc(O)c1
9 | 30 to 34 | OC/C=C/c1ccccc1
10 | 60 to 62 | c1ccc(SSc2ccccc2)cc1
11 | 38 to 38.5 | COc1ccc(C(C)=O)cc1
12 | -123 to -119 | CC(C)CC(C)C
13 | -45 to -44 | CCOCCOCCOCC
14 | -18 to -17.5 | O=C(O)C(F)(F)C(F)(F)C(F)(F)F
15 | 230 to 232 | O=C(O)c1cc([N+](=O)[O-])ccc1O
16 | 205 to 208 | CC(=O)Nc1ccccc1O
17 | 139 to 142 | O=C(O)c1ccc([N+](=O)[O-])cc1Cl
18 | 2 to 2.55 | NC=O
19 | 217 to 221 | OCC(CO)(CO)COCC(CO)(CO)CO
20 | 209 to 212 | O=c1c2ccccc2sc2ccccc12
21 | 224 to 225 | c1ccc(C(=C(c2ccccc2)c2ccccc2)c2ccccc2)cc1
22 | 228 to 230 | COc1ccc(C2CC(=O)c3c(O)cc(O)cc3O2)cc1O (configuration not stated)
23 | 286 to 287 | O=c1cc(-c2ccccc2)oc2cc(O)cc(O)c12

Row | melting point [°C] | SMILES
24 | 5.5 to 6 | COc1cc(C)ccc1O
25 | -128 to -127 | C1CC1
26 | -84.3 to -84 | CCc1cc(C)cc(C)c1
27 | 68 to 69 | CCn1c2ccccc2c2ccccc21
28 | 66 to 67.1 | C(CC1CCNCC1)CC1CCNCC1
29 | 70 to 71.5 | CCN(CC)C(=S)SSC(=S)N(CC)CC
30 | 165 to 166 | COc1ccc(C(N)=O)cc1
31 | 44 to 45.5 | CCCC(=O)NN
32 | 69.7 to 70 | CCCCCCCCCCCCCCCCCCCCCCCCCCCCCCCC
33 | 166 to 167 | O=C(O)c1cc([N+](=O)[O-])ccc1Cl
34 | 138 to 142 | C(=Nc1ccccc1)Nc1ccccc1
35 | 132 to 134 | Cc1cc(=O)cc(C)o1
36 | 83.5 to 84 | Cc1cc(N)ccc1Cl
37 | 237 to 238 | CC(C)CCCC(C)C1CCC2C3CC(O)C4(O)CC(O)CCC4(C)C3CCC12C (configuration not stated)
38 | -131 to -130 | CCC#CCCC
39 | 39 to 41 | O=C(O)CCCl
40 | -70 to -66.7 | Cc1ccccn1
41 | 35 to 38 | CNc1ccccc1[N+](=O)[O-]
42 | 65 to 67 | O=C(c1ccc(Cl)cc1)c1ccccc1Cl
43 | 139 to 143 | O=C(Oc1ccc([N+](=O)[O-])cc1)c1ccccc1
44 | -88 to -87.7 | CCCCC(C)CCCC
45 | -27.3 to -27 | Brc1cccnc1
46 | 156 | NC(=O)c1ccc(F)cc1

Row | melting point [°C] | SMILES
47 | 7 to 8 | O=C1CCCc2ccccc21
48 | 34 to 34.5 | c1ccc2c(c1)CCc1ccccc1-2
49 | -12 to -11.7 | O=[N+]([O-])c1cc(F)ccc1F
50 | 146 to 150 | O=C(O)c1ccccc1Br
51 | 85 to 87 | OCc1ccccc1O
52 | 31 to 33 | FC(F)(F)c1ccc(Cl)nc1
53 | 118 | CC(Oc1ccccc1)C(=O)O (configuration not stated)
54 | 59 to 62 | O=[N+]([O-])c1cccc(-c2ccccc2)c1
55 | -26 to -25 | CC(C)(C)Cl
56 | 24 to 27 | COc1ccc(C)cc1OC
57 | 58 to 60 | CCOc1ccc([N+](=O)[O-])cc1
58 | 148 to 149 | CC(C)CCCC(C)C1CCC2C3CC=C4CC(O)CCC4(C)C3CCC12C (configuration not stated)
59 | -13 to -9 | Fc1cccc2ccccc12
60 | -108 | CCCCCC(C)CC (configuration not stated)
61 | 69 to 72 | COc1ccc(C=O)c(OC)c1
62 | 6.6 to 7 | Cc1ccccc1Cc1ccccc1
63 | 40.3 to 44 | CCC(C)(CO)CO
64 | 24 to 28 | O=C1CCCCCCCCC1
65 | 27 to 27.6 | O=S1(=O)CCCC1
66 | 64 to 66.1 | CCCCCCCCCCCCCCCCCCCCO
67 | 65 to 70 | Nc1cccc2cccnc12
68 | 196 to 200 | NCCC(=O)O
69 | 65 to 66 | CCOC=C(C#N)C#N

Row | melting point [°C] | SMILES
70 | 74 to 78.5 | Nc1c(Cl)cc(Cl)cc1Cl
71 | 84 to 88 | COc1cc(Cl)c(Cl)c(Cl)c1Cl
72 | 145 to 149 | Cc1ccc(P(c2ccc(C)cc2)c2ccc(C)cc2)cc1
73 | -17.9 to -15 | CCCCCCCCCC#N
74 | 79 to 81 | CC(C)(C(=O)O)c1ccccc1
75 | -110 | C=C(C)C(C)(C)C
76 | 108 to 110 | O=[N+]([O-])c1cccc2cnccc12
77 | 79 to 80 | Cc1cc(C)c(C)cc1C
78 | 26 to 29 | CCOc1ccccc1O
79 | -143 to -142 | CF
80 | 52 to 53 | CCCCCCCCC(=O)CCCCCCCC
81 | 68 to 73 | Clc1ccc(SSc2ccc(Cl)cc2)cc1
82 | -94 to -93 | C=C(C)CC(C)(C)C
83 | 63 to 63.5 | CC(C=CC1=C(C)CCCC1(C)C)=CC=CC(C)=CCO
84 | 128 to 130 | O=[N+]([O-])c1ccc(C=NO)cc1
85 | 204 to 206 | O=C(O)c1cccc(O)c1O
86 | 21 to 22 | CCCCCCCCCCCCCCCCC
87 | 37 to 38 | O=C(c1ccccc1)c1c(F)c(F)c(F)c(F)c1F
88 | 138 to 139 | Cc1ccc(S(N)(=O)=O)cc1
89 | 189 to 190 | CC(CO)(CO)C(=O)O
90 | 76 to 79 | CCN1C(=O)c2ccccc2C1=O
91 | -63.1 to -63 | C=Cc1ccccc1Cl
92 | 83 to 84 | Oc1ccc(Cc2ccccc2)cc1

Row | melting point [°C] | SMILES
93 | -128 to -123 | CC=O
94 | -138 | CC1CC1(C)C (configuration not stated)
95 | 35.5 to 36 | O=Cc1ccc([N+](=O)[O-])o1
96 | 214 to 219 | O=C1NC(=O)c2c1cccc2[N+](=O)[O-]
97 | 81 to 83 | COc1ccc(O)cc1OC
98 | -84 to -83.9 | CCc1cccc(CC)c1
99 | 26 to 27 | Cc1ccc(N)cc1Br
100 | 262 to 263 | O=C(O)C=Cc1ccc(Br)cc1
101 | 150 to 151 | COC(=O)c1c[nH]c2ccccc12
102 | -37.5 to -37 | COc1ccccc1
103 | -1.3 to 1 | CC(C)C(=O)c1ccccc1
104 | 68 to 71 | CCCCCCCCCCCCCCCCCC(=O)O
105 | -28 to -27.5 | CCc1cccc(-c2ccccc2)c1
106 | 47.5 to 51 | Oc1ccccc1C=Nc1ccccc1
107 | 161 to 162 | O=C(O)Cc1sc(-c2ccccc2)nc1-c1ccc(Cl)cc1
108 | 437 to 440 | c1cc2ccc3ccc4ccc5ccc6ccc1c1c2c3c4c5c61
109 | -138 | CCC1CCCC1
110 | 78.5 to 81 | COc1ccccc1OCC(O)CO (configuration not stated)
111 | 11 to 12 | CC/C=C/CC(=O)O
112 | 57.5 to 59 | O=C(O)CCCCc1ccccc1
113 | 39.9 to 40.5 | OC1CCCCCCCCC1

Row | SMILES | melting point [°C]
114 | CN(C)c1ccc(Cc2ccc(N(C)C)cc2)cc1 | 87 to 91.5
115 | CC(=O)OCCCCOC(C)=O | 12 to 13
116 | CC(C)C1(C)N=C(c2ncccc2C(=O)O)NC1=O (configuration not stated) | 171 to 172
117 | COP(=S)(OC)Oc1ccc([N+](=O)[O-])cc1 | 35.5 to 36
118 | N=C(Nc1ccccc1)Nc1ccccc1 | 149 to 150
119 | C#CC(C)(C)O | 2.6 to 3
120 | NC(=O)CI | 93.5 to 94.5
121 | Brc1ccc(Oc2ccccc2)cc1 | 18 to 18.7
122 | O=C(O)C(Cl)Br (configuration not stated) | 27 to 31.5
123 | O=[N+]([O-])c1cccc2cccc([N+](=O)[O-])c12 | 172 to 173
124 | CNC1=Nc2ccc(Cl)cc2C(c2ccccc2)=[N+]([O-])C1 | 236
125 | c1ccc(Cn2ccnc2)cc1 | 69 to 71
126 | NC(=O)CCl | 118 to 121
127 | COc1ccc(Cc2nccc3cc(OC)c(OC)cc23)cc1OC | 147 to 148
128 | CCCCCCCCCCCCBr | -10 to -9.5
129 | O=Nc1ccccc1 | 65 to 68.5
130 | Oc1ccc(I)cc1 | 92 to 94
131 | ClC1=C(Cl)C2(Cl)C3C(Cl)C=CC3C1(Cl)C2(Cl)Cl (configuration not stated) | 95 to 95.5
132 | Oc1ccc(Cc2ccc(O)cc2)cc1 | 161 to 162
133 | CC(Br)CBr (configuration not stated) | -55.5 to -55
134 | c1ccc2c(c1)Cc1cc3ccccc3cc1-2 | 208 to 212
135 | O=C(C(F)(F)F)C(F)(F)F | -129 to -125
136 | Nc1ccc(Cl)cc1Cl | 61 to 63.5
137 | O=[N+]([O-])c1ccc(Oc2ccc(C(F)(F)F)cc2[N+](=O)[O-])cc1 | 90 to 94
138 | N#CCCCCC#N | 1 to 2

Row | SMILES | melting point [°C]
139 | N#Cc1c[nH]cc1-c1cccc2c1OC(F)(F)O2 | 199
140 | N#CCc1ccccc1Cl | 23 to 24
141 | O=C1OC(=O)c2c(Cl)c(Cl)c(Cl)c(Cl)c21 | 254 to 256
142 | CCC1(c2ccccc2)C(=O)NC(=O)NC1=O | 174 to 176
143 | O=[N+]([O-])c1cc(I)c(O)c(I)c1 | 153 to 157
144 | N#Cc1ccc(C=O)cc1 | 100 to 102
145 | Clc1c(Cl)c(Cl)c(Cl)c(Cl)c1Cl | 228 to 232
146 | O=C(Oc1ccccc1)c1ccccc1C(=O)Oc1ccccc1 | 73 to 75
147 | CCCCCCCCCc1ccc(O)cc1 | 42 to 45
148 | C=CCN | -88.2 to -88
149 | ClCCCCCCl | -73 to -72
150 | Nc1ccc([N+](=O)[O-])cc1N | 199 to 201
151 | CC(C)(C)N=C=S | 10 to 10.5
152 | CC(=O)Nc1ccc(Cl)cc1 | 178 to 179
153 | Oc1c(Cl)ccc(Cl)c1Cl | 56 to 58
154 | N#Cc1ccc([N+](=O)[O-])cc1 | 145 to 149
155 | O=C(CCl)c1ccc(Cl)cc1 | 101 to 102
156 | CCC(=O)c1ccccc1 | 18 to 19
157 | Oc1ccc(-c2ccccc2)cc1 | 165 to 167
158 | Cn1nnnc1S | 122 to 127
159 | BrCCCBr | -34.2 to -34
160 | Cc1cccc(C#N)c1 | -27 to -23
161 | N#Cc1cccnc1 | 50 to 51
162 | CCOC(=O)C(C(=O)OCC)c1ccccc1 | 16 to 16.5
